Results from patent US6211227A, “Tricyclic compounds” (Kyowa Hakko Kogyo Co., Ltd., priority 1997, dated 2001).
Where two headings read alike, the source gives them in different places.

How the values were obtained:
[1] = system: detrusor muscle (isolated urinary bladder strips); test: Relaxation of rhythmic contraction induced by 15 mmol/l KCl in isolated urinary bladder strips (Test Example 2); set-up: species or system guinea pig (male albino Hartley); settings: Cavia porcellus; KCl 15 mmol/l; cumulative, contact time 15-30 minutes; 50% relaxant of maximum response
Source text: (§1) The activity of Compounds (I) as therapeutic agents for pollakiuria and urinary incontinence is described below. In the following Test Examples 1 and 2, IC50 value was defined as the concentration at which a test compound produces 50% relaxant of maximum response of detrusor muscle.
(§2) Male albino Hartley guinea pigs (350-550 g) were used as test animals. Each animal was exsanguinated to death under sodium pentobarbital anesthesia. The lower abdominal cavity was opened and its bladder was positioned. The connective tissue and the fat tissue around the bladder were removed, and the bladder was washed. After bilateral pelvic nerves on the surface of the abdominal side of the bladder were dissected, the bladder was taken out on the entrance of ureter. The bladder was washed with a Krebs-Henseleit buffer [composition (mM): NaCl 118, KCl 4.7, MgSO4 1.2, KH2 PO4 1.2, CaCl2 2.5, NaHCO3 25, and D-glucose 11.1], and then put on a gauze patch soaked in the buffer in a Petri dish. The dome and the trigone of the bladder were cut away. The back of the bladder was cut vertically in the middle with scissors, and the bladder was put flat on the gauze patch. The mucosa of the bladder was removed. The back of the bladder was cut vertically to get 6 strips which are ca. 2.0 mm wide and ca. 10 mm long.
(§3) Each strip was tied at one end to plastic rod and placed in a 20 ml organ bath containing a Krebs-Henseleit solution which was maintained at 37° C. and bubbled vigorously with a gas mixture of 5% CO2 and 95% O2. The pH of the solution was adjusted to about 7.4. The other end of the strip was tied via silk thread to a force displacement transducer (NIHON KODEN TB-611T). The transducer was connected to a polygraph (NIHON KODEN AP-621G), and the changes in tension were recorded on a recorder (YOKOGAWA type 3066). The polygraph was graduated by 0.5 g/cm.
Isolated urinary bladder strips were prepared in the same manner as in Test Example 1, and the tension of the preparation was measured. After the tension of the tissue was adjusted to be a steady state at 1 g, 15 mmol/l KCl was applied. After the rhythmic contraction was confirmed to appear by KCl, the tissue was washed. Then, 15 mmol/l KCl was applied again. After the rhythmic contraction induced by KCl became constant, a test compound was applied by the cumulative method (half-logarithmic increment). The contact time at each concentration was 15-30 minutes. The activity of the compound was expressed as the maximum relaxation rate (%) against the tension induced by the agonist.

[2] = system: detrusor muscle (isolated urinary bladder strips); test: Relaxation of contraction induced by 50 mmol/l KCl in isolated urinary bladder strips (Test Example 1); set-up: species or system guinea pig (male albino Hartley); settings: Cavia porcellus, 0.5 h; KCl 50 mmol/l; cumulative, contact time 30 minutes; 50% relaxant of maximum response
Source text: as §1, §2, §3
After the tissue was incubated in the buffer for 15 minutes without preloading, tension was added thereto for about one hour. The preloading tension added was 1.5 g and it was relaxed to about 1 g. The strips were allowed to equilibrate until their contractions became constant and tension was adjusted to 1 g. After this equilibrium period, 50 mmol/l KCl (the whole content in the bath) was added, and the tissue was washed 10 minutes later. KCl was added to the tissue at intervals of 30 minutes, followed by washing 10 minutes later, and KCl was applied repeatedly until the developed tension induced by KCl becomes constant. When the tissue was confirmed to contract constantly by the application of KCl and relax to the steady state after washing, 50 mmol/l KCl was applied again. After the tissue reached the steady state and the base line was obtained, a test compound was applied by the cumulative method (half-logarithmic increment). The contact time at each concentration was 30 minutes. The activity of the compound was expressed as the maximum relaxation rate (%) against the tension induced by the agonist.

[3] = system: bladder; test: animal or person; settings: Rattus norvegicus, po, read-out: Contraction interval
Procedure: Male SD strain rats (200-300 g) were used as test animals. Each animal was anesthetized by intraperitoneally administering 50 mg/kg Nembutal. The hair on the abdomen, the thigh, and the back of the neck was shaved, followed by disinfection with 70% ethanol. The left femoral artery of the rat was exposed by incising the thigh for the insertion of a catheter into the femoral artery. A catheter filled with physiological saline containing heparin (1000 units/ml) was introduced approximately 2-3 cm into the artery so that its tip resided in the abdominal artery. The distal end of the catheter was exteriorized at the nape of the neck, sealed, and fixed on the skin tightly. A bladder catheter was implanted according to the method of Yaksh, et al., [Am. J. Physiol., vol.251, R1177-1185 (1986)]. The bladder was exposed through a midline abdominal incision. The bladder dome was given a small incision to make a small hole. A catheter filled with physiological saline was placed into the bladder and secured with a silk ligature. The other end of the catheter was exteriorized at the nape of the neck after being passed under the skin using a trocar. The exposed end of the catheter was sealed and fixed on the skin tightly. The abdominal muscles and skin were sutured, and the test animal was recovered from anesthesia.
The rat was weighed 24-48 hours after the operation. Each rat was placed in a Bollman cage (NATSUME SEISAKUSHO), and the test was done under partial restraint. The arterial catheter was connected to a pressure transducer (NIHON KODEN DX-300) used for the measurement of blood pressure. The bladder catheter was connected to a sylinge pump for physiological saline infusion and to a pressure transducer with PE50 tubing and a three-way stop-cock. Intravesical physiological saline infusion (0.05 ml/minute) was started and continued during the test. The changes of blood pressure, heart rate, and intravesical pressure were recorded with a polygraph (NIHON KODEN). The test animal was allowed to equilibration (for ca. 60-120 minutes) until its micturition pattern became constant. At this point, a basal value of each test parameter was recorded, and the rat was compulsorily given a test compound (in 0.3% carboxymethyl cellulose-physiological saline) at a dose of 1 mg/kg (body weight) by oral administration. […] As a control compound, cromakalim was used. The contraction interval, the systemic blood pressure, and the heart rate were measured for 5 hours after the administration of the compound at one-hour intervals and were expressed as the relative values based on the pre-administration values which were regarded as 100.

| Compound | IC50 [1] | IC50 [2] | response vs control in vivo at 1 mg/kg ([3]; 1 h) | response vs control in vivo at 1 mg/kg ([3]; 2 h) | response vs control in vivo at 1 mg/kg ([3]; 3 h) | response vs control in vivo at 1 mg/kg ([3]; 4 h) | response vs control in vivo at 1 mg/kg ([3]; 5 h) | further results |
| --- | --- | --- | --- | --- | --- | --- | --- | --- |
| CC(O)(C(=O)Nc1cccc2c1C(=O)c1sccc1CS2(=O)=O)C(F)(F)F (stereo not shown) [Compound 1-1, 5,5-Dioxo-9-(3,3,3-trifluoro-2-hydroxy-2-methylpropanoylamino)-4,10-dihydrothieno[3,2-c][1]benzothiepin-10-one] | 2.6 µM | > 10 µM | 138 ± 15% | 166 ± 16% | 170 ± 6% | 181 ± 16% | 203 ± 21% | response vs control in vivo at 10 mg/kg ([3]; 1 h): 124 ± 4%; response vs control in vivo at 10 mg/kg ([3]; 2 h): 139 ± 9%; response vs control in vivo at 10 mg/kg ([3]; 3 h): 154 ± 14%; response vs control in vivo at 10 mg/kg ([3]; 4 h): 176 ± 13%; response vs control in vivo at 10 mg/kg ([3]; 5 h): 190 ± 15% |
| CC(O)(C(=O)Nc1ccc2c(c1)S(=O)(=O)Cc1ccsc1C2=O)C(F)(F)F (stereo not shown) [Compound 1-2, 5,5-Dioxo-7-(3,3,3-trifluoro-2-hydroxy-2-methylpropanoylamino)-4,10-dihydrothieno[3,2-c][1]benzothiepin-10-one] | 5.1 µM | > 10 µM | 116 ± 8% | 136 ± 5% | 149 ± 9% | 143 ± 5% | 139 ± 6% | – |
| CC(O)(C(=O)Nc1cccc2c1C(=O)c1ccccc1CS2(=O)=O)C(F)(F)F (stereo not shown) [Compound 1-3, 5,5-Dioxo-1-(3,3,3-trifluoro-2-hydroxy-2-methylpropanoylamino)-6,11-dihydrodibenzo[b,e]thiepin-11-one] | 6.3 µM | > 10 µM | 123 ± 15% | 135 ± 11% | 144 ± 10% | 160 ± 19% | 160 ± 16% | – |
| CC(O)(C(=O)Nc1ccc2c(c1)S(=O)(=O)Cc1ccccc1C2=O)C(F)(F)F (stereo not shown) [Compound 1-4, 5,5-Dioxo-3-(3,3,3-trifluoro-2-hydroxy-2-methylpropanoylamino)-6,11-dihydrodibenzo[b,e]thiepin-11-one] | 3.2 µM | 4.5 µM | – | – | – | – | – | – |
| CC(O)(C(=O)Nc1cccc2c1C(=O)c1ccsc1CS2(=O)=O)C(F)(F)F (stereo not shown) [Compound 1-5, 9,9-Dioxo-5-(3,3,3-trifluoro-2-hydroxy-2-methylpropanoylamino)-4,10-dihydrothieno[2,3-c][1]benzothiepin-4-one] | 4 µM | 8.7 µM | – | – | – | – | – | – |
| C[C@](O)(C(=O)Nc1cccc2c1C(=O)c1sccc1CS2(=O)=O)C(F)(F)F [Compound 1-25, (S)-(+)-5,5-Dioxo-9-(3,3,3-trifluoro-2-hydroxy-2-methylpropanoylamino)-4,10-dihydrothieno[3,2-c][1]benzothiepin-10-one] | 2.6 µM | 10.5 µM | – | – | – | – | – | response vs control in vivo at 0.1 mg/kg ([3]; 1 h): 108 ± 9%; response vs control in vivo at 3 mg/kg ([3]; 1 h): 129 ± 8%; response vs control in vivo at 10 mg/kg ([3]; 1 h): 133 ± 15%; response vs control in vivo at 0.1 mg/kg ([3]; 2 h): 140 ± 9%; response vs control in vivo at 3 mg/kg ([3]; 2 h): 125 ± 14%; response vs control in vivo at 10 mg/kg ([3]; 2 h): 128 ± 10%; response vs control in vivo at 0.1 mg/kg ([3]; 3 h): 140 ± 12%; response vs control in vivo at 3 mg/kg ([3]; 3 h): 143 ± 22%; response vs control in vivo at 10 mg/kg ([3]; 3 h): 149 ± 19%; response vs control in vivo at 0.1 mg/kg ([3]; 4 h): 148 ± 13%; response vs control in vivo at 3 mg/kg ([3]; 4 h): 165 ± 22%; response vs control in vivo at 10 mg/kg ([3]; 4 h): 180 ± 22%; response vs control in vivo at 0.1 mg/kg ([3]; 5 h): 163 ± 17%; response vs control in vivo at 3 mg/kg ([3]; 5 h): 161 ± 13%; response vs control in vivo at 10 mg/kg ([3]; 5 h): 183 ± 14% |
| C[C@@](O)(C(=O)Nc1cccc2c1C(=O)c1sccc1CS2(=O)=O)C(F)(F)F [Compound 1-26, (R)-(-)-5,5-Dioxo-9-(3,3,3-trifluoro-2-hydroxy-2-methylpropanoylamino)-4,10-dihydrothieno [3,2-c][1]benzothipin-10-one] | 6.6 µM | 6.3 µM | – | – | – | – | – | response vs control in vivo at 0.1 mg/kg ([3]; 1 h): 118 ± 8%; response vs control in vivo at 0.1 mg/kg ([3]; 2 h): 137 ± 7%; response vs control in vivo at 0.1 mg/kg ([3]; 3 h): 145 ± 7%; response vs control in vivo at 0.1 mg/kg ([3]; 4 h): 152 ± 8%; response vs control in vivo at 0.1 mg/kg ([3]; 5 h): 168 ± 7% |
| COc1ccc(NC(=O)C(C)(O)C(F)(F)F)c2c1S(=O)(=O)Cc1ccsc1C2=O (stereo not shown) [Compound 1-28, 5,5-Dioxo-6-methoxy-9-(3,3,3-trifluoro-2-hydroxy-2-methylpropanoylamino)-4,10-dihydrothieno[3,2-c][1]benzothiepin-10-one] | > 10 µM | – | 127 ± 10% | 139 ± 7% | 133 ± 6% | 140 ± 3% | 145 ± 3% | – |
| CC(O)(C(=O)Nc1ccc(Cl)c2c1C(=O)c1sccc1CS2(=O)=O)C(F)(F)F (stereo not shown) [Compound 1-33, 6-Chloro-5,5-dioxo-9-(3,3,3-trifluoro-2-hydroxy-2-methylpropanoylamino)-4,10-dihydrothieno[3,2-c][1]benzothiepin-10-one] | 0.7 µM | – | 124 ± 15% | 137 ± 15% | 137 ± 4% | 142 ± 10% | 148 ± 21% | – |
| CC(O)(C(=O)Nc1ccc(F)c2c1C(=O)c1sccc1CS2(=O)=O)C(F)(F)F (stereo not shown) [Compound 1-35, 5,5-Dioxo-6-fluoro-9-(3,3,3-trifluoro-2-hydroxy-2-methylpropanoylamino)-4,10-dihydrothieno[3,2-c][1]benzothiepin-10-one] | 2.5 µM | – | 115 ± 2% | 133 ± 12% | 131 ± 15% | 152 ± 4% | 148 ± 3% | – |
| O=C1c2ccc(NC(=O)C(F)(F)F)cc2S(=O)(=O)Cc2ccsc21 [Compound 3-5, 5,5-Dioxo-7-trifluoroacetylamino-4,10-dihydrothieno[3,2-c][1]benzothiepin-10-one] | 8.3 µM | 8.7 µM | 131 ± 12% | 152 ± 4% | 145 ± 18% | 157 ± 13% | 158 ± 4% | – |
| O=C1c2sccc2CS(=O)(=O)c2cccc(NC(=O)C3CCCO3)c21 (stereo not shown) [Compound 3-9, 5,5-Dioxo-9-(2-tetrahydrofuroylamino)-4,10-dihydrothieno[3,2-c][1]benzothiepin-10-one] | > 10 µM | – | 122 ± 7% | 128 ± 16% | 129 ± 18% | 150 ± 19% | 160 ± 21% | – |
| CC(C)(O)C(=O)Nc1cccc2c1C(=O)c1sccc1CS2(=O)=O [Compound 3-12, 5,5-Dioxo-9-(2-hydroxy-2-methylpropanoylamino)-4,10-dihydrothieno[3,2-c][1]benzothiepin-10-one] | > 10 µM | – | 118 ± 18% | 153 ± 20% | 152 ± 17% | 161 ± 26% | 165 ± 19% | – |
